Data set [1] concerns the target Glycine receptor (Rattus norvegicus, UniProt P22771+P24524+P07727+P20781). The data set is classed as cell membranes, Wistar, Spinal cord, Membrane. Note: in other assays of this panel Not Active means under 50% inhibition at 10 µM.
A short description of data set [2]: DRUGMATRIX: Nicotinic Acetylcholine radioligand binding (ligand: [125I] Epibatidine). In kind it is cell membranes, Membrane. The following applies: imr-32; Not Active = under 50% inhibition at 10 µM.
The target in data set [3] is T1, Cytochrome P450 1A2 (Homo sapiens, UniProt P05177). Note: in other assays of this panel Not Active means under 50% inhibition at 10 µM.
T1 sequence (P05177 whole entry): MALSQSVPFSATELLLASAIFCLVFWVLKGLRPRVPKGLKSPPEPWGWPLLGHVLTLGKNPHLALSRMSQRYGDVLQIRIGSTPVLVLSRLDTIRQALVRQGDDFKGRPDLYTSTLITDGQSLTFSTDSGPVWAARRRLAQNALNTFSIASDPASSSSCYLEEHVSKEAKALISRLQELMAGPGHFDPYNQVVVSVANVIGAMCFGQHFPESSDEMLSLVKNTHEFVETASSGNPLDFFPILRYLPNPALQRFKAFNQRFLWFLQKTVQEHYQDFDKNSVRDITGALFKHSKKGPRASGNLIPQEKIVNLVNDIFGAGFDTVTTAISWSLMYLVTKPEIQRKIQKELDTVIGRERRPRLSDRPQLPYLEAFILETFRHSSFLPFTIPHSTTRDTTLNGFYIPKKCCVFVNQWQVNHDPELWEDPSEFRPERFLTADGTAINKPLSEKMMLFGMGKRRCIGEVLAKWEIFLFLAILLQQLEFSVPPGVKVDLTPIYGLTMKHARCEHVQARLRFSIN
The following applies: bti-tn-5b1-4.

Data set [4] addresses T2, Amine oxidase [flavin-containing] A (Homo sapiens, UniProt P21397).
T2 sequence (P21397 whole entry): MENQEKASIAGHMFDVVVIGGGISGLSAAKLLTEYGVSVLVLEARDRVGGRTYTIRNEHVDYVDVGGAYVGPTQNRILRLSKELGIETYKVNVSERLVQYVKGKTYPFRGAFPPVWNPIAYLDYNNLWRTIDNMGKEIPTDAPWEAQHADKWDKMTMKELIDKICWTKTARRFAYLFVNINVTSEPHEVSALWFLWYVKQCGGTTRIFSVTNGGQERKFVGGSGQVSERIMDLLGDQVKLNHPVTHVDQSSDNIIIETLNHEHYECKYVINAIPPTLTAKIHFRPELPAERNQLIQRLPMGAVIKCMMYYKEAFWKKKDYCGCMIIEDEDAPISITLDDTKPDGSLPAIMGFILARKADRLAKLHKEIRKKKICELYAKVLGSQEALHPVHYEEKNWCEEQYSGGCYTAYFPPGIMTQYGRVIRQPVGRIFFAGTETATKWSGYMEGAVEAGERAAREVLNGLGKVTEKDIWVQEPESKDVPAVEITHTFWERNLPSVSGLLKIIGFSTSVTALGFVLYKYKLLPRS
The data set can be described thus: DRUGMATRIX: Monoamine Oxidase MAO-A enzyme inhibition (substrate: Kynuramine). Also noted: species or system BTI-TN-5B1-4. Conditions: bti-tn-5b1-4; Not Active = under 50% inhibition at 10 µM.

For data set [5], the target named is Cytochrome P450 3A4 (Homo sapiens, UniProt P08684). The following applies: bti-tn-5b1-4. Note: in other assays of this panel Not Active means under 50% inhibition at 10 µM.
In data set [6] the target is T3, Endothelin-1 receptor (Homo sapiens, UniProt P25101). Note: in other assays of this panel Not Active means under 50% inhibition at 10 µM.
T3 sequence (P25101 whole entry): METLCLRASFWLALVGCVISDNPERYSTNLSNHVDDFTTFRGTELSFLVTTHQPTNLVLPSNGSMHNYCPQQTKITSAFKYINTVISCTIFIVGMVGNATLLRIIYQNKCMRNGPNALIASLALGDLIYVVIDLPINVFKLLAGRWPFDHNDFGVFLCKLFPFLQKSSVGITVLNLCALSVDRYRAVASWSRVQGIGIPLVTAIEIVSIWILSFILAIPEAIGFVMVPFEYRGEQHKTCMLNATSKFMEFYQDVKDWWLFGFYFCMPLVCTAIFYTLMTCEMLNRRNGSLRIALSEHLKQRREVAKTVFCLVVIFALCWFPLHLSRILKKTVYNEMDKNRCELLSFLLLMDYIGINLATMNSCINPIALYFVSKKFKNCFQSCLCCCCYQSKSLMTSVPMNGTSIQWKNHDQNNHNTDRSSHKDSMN
The data set is classed as cell membranes, CHO-K1, Membrane.

The target of data set [7] is T4, Substance-K receptor (Homo sapiens, UniProt P21452). Note: in other assays of this panel Not Active means under 50% inhibition at 10 µM.
T4 sequence (P21452 whole entry): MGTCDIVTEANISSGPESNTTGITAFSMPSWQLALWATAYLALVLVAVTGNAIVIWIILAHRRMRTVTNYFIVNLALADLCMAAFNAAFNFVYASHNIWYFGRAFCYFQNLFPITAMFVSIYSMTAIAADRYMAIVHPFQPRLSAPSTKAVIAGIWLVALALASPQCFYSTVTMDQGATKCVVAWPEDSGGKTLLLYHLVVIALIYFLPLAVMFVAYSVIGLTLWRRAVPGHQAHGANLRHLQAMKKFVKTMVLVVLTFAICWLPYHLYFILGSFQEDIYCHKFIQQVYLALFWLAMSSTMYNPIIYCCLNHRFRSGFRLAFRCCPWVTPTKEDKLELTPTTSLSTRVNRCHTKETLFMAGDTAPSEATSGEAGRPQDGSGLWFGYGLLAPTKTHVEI
In kind it is cell membranes, CHO, Membrane. Conditions: cho.

In data set [8] the target is T5, Neutrophil elastase (Homo sapiens, UniProt P08246).
T5 sequence (P08246 whole entry): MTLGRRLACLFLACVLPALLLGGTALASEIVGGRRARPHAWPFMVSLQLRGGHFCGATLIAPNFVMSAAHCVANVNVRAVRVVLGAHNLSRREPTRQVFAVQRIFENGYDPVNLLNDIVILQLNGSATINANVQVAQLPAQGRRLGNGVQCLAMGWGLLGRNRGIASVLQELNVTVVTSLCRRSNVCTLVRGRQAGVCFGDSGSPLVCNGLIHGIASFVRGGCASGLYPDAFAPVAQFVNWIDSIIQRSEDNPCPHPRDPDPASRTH
The data set is classed as tissue-based.

As usually defined, the IC50 is the concentration that inhibits the measured activity by half. The term Ki denotes the equilibrium dissociation constant of an inhibitor or competing ligand from its target.

Structures are written as SMILES.

Chain of Cytochrome P450 3A4 (P08684 whole entry): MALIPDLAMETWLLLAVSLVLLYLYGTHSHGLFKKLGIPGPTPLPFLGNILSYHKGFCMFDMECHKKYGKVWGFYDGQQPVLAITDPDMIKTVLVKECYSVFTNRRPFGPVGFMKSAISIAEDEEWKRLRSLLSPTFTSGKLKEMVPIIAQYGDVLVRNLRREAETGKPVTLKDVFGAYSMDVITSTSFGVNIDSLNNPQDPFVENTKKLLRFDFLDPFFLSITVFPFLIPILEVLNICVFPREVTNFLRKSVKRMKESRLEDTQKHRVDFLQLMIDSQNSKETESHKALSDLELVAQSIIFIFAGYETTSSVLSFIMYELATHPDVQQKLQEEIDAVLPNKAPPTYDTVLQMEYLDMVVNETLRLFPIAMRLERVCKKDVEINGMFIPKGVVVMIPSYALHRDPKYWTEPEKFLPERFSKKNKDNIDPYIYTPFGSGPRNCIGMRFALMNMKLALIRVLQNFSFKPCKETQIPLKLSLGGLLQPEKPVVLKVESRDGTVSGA

In the case of `CNS(=O)(=O)Cc1ccc2[nH]cc(CCN(C)C)c2c1`, the IC50 entry in data set [1], in data set [2], in data set [3], in data set [4], in data set [5] and in data set [6] (cho-k1) was “Not Active” in each case. Further, the IC50 entry in data set [7] and in data set [8] was “Not Active” in each case. The Ki result in data set [2], in data set [3] and in data set [5] was “Not Active” each time.

`CCCc1nn(C)c2c(=O)[nH]c(-c3cc(S(=O)(=O)N4CCN(C)CC4)ccc3OCC)nc12`: the IC50 result in data set [1], in data set [2], in data set [3], in data set [4], in data set [5] and in data set [6] (cho-k1) was “Not Active” in each case. Besides, the IC50 entry in data set [7] and in data set [8] was “Not Active” throughout. Further, the Ki entry in data set [2], in data set [3] and in data set [5] was “Not Active” throughout.

As for `COc1ccc(/C=C/C(=O)Nc2ccccc2C(=O)O)cc1OC`, the half-maximal inhibitory concentration (IC50) entry in data set [1], in data set [2], in data set [3], in data set [4], in data set [5] and in data set [6] (cho-k1) was “Not Active” throughout. Besides, the IC50 entry in data set [7] and in data set [8] was “Not Active” each time. Moreover, the Ki entry in data set [2], in data set [3] and in data set [5] was “Not Active” each time.

On to `CCOC(N)=O`, for which the half-inhibitory concentration (IC50) result in data set [1], in data set [2], in data set [3], in data set [4], in data set [5] and in data set [6] (cho-k1) was “Not Active” throughout. In addition, the IC50 result in data set [7] and in data set [8] was “Not Active” each time. For the same molecule, the inhibitory constant (Ki) result in data set [2], in data set [3] and in data set [5] was “Not Active” throughout.

In the case of `CC1=C(CC(=O)O)c2cc(F)ccc2/C1=C\c1ccc(S(C)(=O)=O)cc1` [EXISULIND], the IC50 result in data set [1] is “Not Active”; in data set [2] it was “Not Active”; in data set [3] it was “Not Active”; in data set [4], “Not Active”; in data set [5], “Not Active”; in data set [6] (read-out: IC50), 9.85 µM. Besides, the IC50 result in data set [7] and in data set [8] was “Not Active” throughout. The Ki entry was “Not Active” in data set [2], “Not Active” in data set [3], “Not Active” in data set [5] and 6.06 µM in data set [6] (read-out: Ki).

For `Nc1nc2c(c(=O)[nH]1)N(C=O)C(CNc1ccc(C(=O)N[C@@H](CCC(=O)O)C(=O)O)cc1)CN2` (some centres undefined) [LEUCOVORIN], the IC50 entry in data set [1], in data set [2], in data set [3], in data set [4], in data set [5] and in data set [6] (cho-k1) was “Not Active” each time. For the same molecule, the IC50 result in data set [7] and in data set [8] was “Not Active” in each case. For the same molecule, the Ki entry in data set [2], in data set [3] and in data set [5] was “Not Active” each time.

With `C[C@@H](O)[C@H]1C(=O)N2C(C(=O)O)=C(S[C@@H]3CN[C@H](C(=O)N(C)C)C3)[C@H](C)[C@H]12` [MEROPENEM], the IC50 entry in data set [1], in data set [2], in data set [3], in data set [4], in data set [5] and in data set [6] (cho-k1) was “Not Active” in each case. Also, the IC50 result in data set [7] and in data set [8] was “Not Active” throughout. For the same molecule, the Ki result in data set [2], in data set [3] and in data set [5] was “Not Active” throughout.

As to `CCN(CC)CC#CCOC(=O)C(O)(c1ccccc1)C1CCCCC1` (centres undefined) [OXYBUTYNIN], the IC50 entry in data set [1], in data set [3], in data set [4], in data set [5], in data set [6] (cho-k1) and in data set [7] was “Not Active” in each case. The IC50 result in data set [8] is reported as “Not Active”. For the same molecule, the Ki entry in data set [3] and in data set [5] was “Not Active” each time.

`O=P(O)(O)C(O)(Cc1cccnc1)P(=O)(O)O` [RISEDRONIC ACID]: the IC50 entry in data set [1], in data set [2], in data set [3], in data set [4], in data set [5] and in data set [6] (cho-k1) was “Not Active” each time. Besides, the IC50 result in data set [7] and in data set [8] was “Not Active” throughout. Besides, the Ki entry in data set [2], in data set [3] and in data set [5] was “Not Active” each time.

As for `C=C(C)[C@H]1Cc2c(ccc3c2O[C@@H]2COc4cc(OC)c(OC)cc4[C@@H]2C3=O)O1` [ROTENONE], the half-maximal inhibitory concentration (IC50) result in data set [1], in data set [2], in data set [3], in data set [4], in data set [5] and in data set [6] (cho-k1) was “Not Active” each time. Also, the IC50 result in data set [7] and in data set [8] was “Not Active” each time. The Ki result in data set [2], in data set [3] and in data set [5] was “Not Active” in each case.

In the case of `Nc1ccc(S(=O)(=O)Nc2ncccn2)cc1` [SULFADIAZINE], the IC50 result in data set [1], in data set [2], in data set [3], in data set [4], in data set [5] and in data set [6] (cho-k1) was “Not Active” throughout. Besides, the IC50 entry in data set [7] and in data set [8] was “Not Active” throughout. Moreover, the inhibition constant (Ki) entry in data set [2], in data set [3] and in data set [5] was “Not Active” throughout.

Regarding `O=c1n(CCCN2CCN(c3cccc(Cl)c3)CC2)nc2ccccn12` [TRAZODONE], the IC50 result in data set [1], in data set [3], in data set [4], in data set [5], in data set [6] (cho-k1) and in data set [7] was “Not Active” each time. In addition, in data set [8], the IC50 entry is reported as “Not Active”. Also, the Ki entry in data set [3] and in data set [5] was “Not Active” each time.

Source of the values: ChEMBL document CHEMBL1909046, “DrugMatrix in vitro pharmacology data”.
